Reference: ChEMBL document CHEMBL3808364, “The SAR of brain penetration for a series of heteroaryl urea FAAH inhibitors” (Bioorg Med Chem Lett, 2016)
Active and inactive are the calls of the source. The calls are words filed in the database; no cut-off is given here.

Tests used:
Rattus norvegicus [1] = assay: Inhibition of FAAH in Sprague-Dawley rat brain homogenate assessed as time duration needed for enzyme activity recovery by measuring [3H]-anandamide hydrolysis at 20 mg/kg by liquid scintillation analysis; type: functional
[2] = biological target: T1, Fatty-acid amide hydrolase 1 (Rattus norvegicus, UniProt P97612); assay: Apparent inhibition of recombinant rat FAAH expressed in SK-N-MC cells assessed as [3H]-anandamide hydrolysis after 1 hr by liquid scintillation analysis; type: cell-based
T1 sequence (P97612 whole entry): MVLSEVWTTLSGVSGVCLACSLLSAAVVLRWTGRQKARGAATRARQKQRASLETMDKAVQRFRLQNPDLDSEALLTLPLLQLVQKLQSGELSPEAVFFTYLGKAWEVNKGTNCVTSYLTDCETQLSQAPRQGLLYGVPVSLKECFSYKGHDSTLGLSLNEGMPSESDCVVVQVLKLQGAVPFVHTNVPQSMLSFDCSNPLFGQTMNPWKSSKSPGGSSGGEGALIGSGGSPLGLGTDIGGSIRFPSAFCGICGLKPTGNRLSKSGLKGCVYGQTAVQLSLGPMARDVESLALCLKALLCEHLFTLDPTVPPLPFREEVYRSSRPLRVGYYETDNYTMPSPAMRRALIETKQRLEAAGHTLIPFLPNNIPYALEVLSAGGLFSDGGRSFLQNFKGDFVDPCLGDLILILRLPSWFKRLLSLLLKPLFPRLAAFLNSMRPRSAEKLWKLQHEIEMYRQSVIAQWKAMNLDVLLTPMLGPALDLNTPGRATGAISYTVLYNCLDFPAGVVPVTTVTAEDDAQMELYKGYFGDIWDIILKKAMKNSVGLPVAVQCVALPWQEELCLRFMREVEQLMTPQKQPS

[3] = Ratio of drug level in brain to plasma in Sprague-Dawley rat at 20 mg/kg via oral gavage; type: ADME, organism-based; settings: read-out: BPR
Rattus norvegicus [4] = assay: Inhibition of FAAH in Sprague-Dawley rat brain homogenate assessed as increase in PEA levels at 20 mg/kg after 0.5 to 4 hrs by […]; type: functional, organism-based
Rattus norvegicus [5] = assay: Inhibition of FAAH in Sprague-Dawley rat brain homogenate assessed as increase in OEA levels at 20 mg/kg after 0.5 to 4 hrs by […]; type: functional, organism-based
[6] = biological target: T2, Fatty-acid amide hydrolase 1 (Homo sapiens, UniProt O00519)
T2 sequence (O00519 whole entry): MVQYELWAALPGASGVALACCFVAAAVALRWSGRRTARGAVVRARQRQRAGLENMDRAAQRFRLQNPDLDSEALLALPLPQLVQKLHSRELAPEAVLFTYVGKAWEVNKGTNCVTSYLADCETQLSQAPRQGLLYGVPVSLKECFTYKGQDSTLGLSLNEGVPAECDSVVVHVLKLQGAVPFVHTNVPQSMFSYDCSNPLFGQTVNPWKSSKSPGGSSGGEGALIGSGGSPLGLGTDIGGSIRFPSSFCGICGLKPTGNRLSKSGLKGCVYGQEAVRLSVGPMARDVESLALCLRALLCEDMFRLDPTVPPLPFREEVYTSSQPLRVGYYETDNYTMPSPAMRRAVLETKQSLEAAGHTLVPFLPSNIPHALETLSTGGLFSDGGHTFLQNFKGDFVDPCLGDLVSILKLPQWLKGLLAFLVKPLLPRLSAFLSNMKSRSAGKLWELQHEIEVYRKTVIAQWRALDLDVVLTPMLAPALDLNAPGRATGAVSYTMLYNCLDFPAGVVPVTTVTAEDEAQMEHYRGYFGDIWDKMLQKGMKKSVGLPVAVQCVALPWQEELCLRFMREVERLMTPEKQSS

[7] = Dissociation constant, pKa of the compound at pH 7.2; type: physicochemical
[8] = Clearance in Sprague-Dawley rat; type: ADME, organism-based; settings: in vivo
[9] = Volume of distribution at Steady state in Sprague-Dawley rat; type: ADME, organism-based; settings: in vivo, read-out: Vdss
[10] = Oral bioavailability in Sprague-Dawley rat; type: ADME, organism-based; settings: in vivo
Rattus norvegicus [11] = assay: Inhibition of FAAH in Sprague-Dawley rat brain homogenate assessed as residual activity measured as [3H]-anandamide hydrolysis at 6 mg/kg after 4 hrs by liquid scintillation analysis; type: functional
Rattus norvegicus [12] = assay: Inhibition of FAAH in Sprague-Dawley rat brain homogenate assessed as time duration needed for enzyme activity recovery by measuring [3H]-anandamide hydrolysis at 6 mg/kg by liquid scintillation analysis; type: functional
Rattus norvegicus [13] = organism: Rattus norvegicus; settings: Sprague-Dawley, Brain, 6 mg/kg
Description: Inhibition of FAAH in Sprague-Dawley rat brain homogenate assessed as increase in PEA levels at 6 mg/kg after 0.5 to 4 hrs by liquid scintillation analysis

Rattus norvegicus [14] = organism: Rattus norvegicus; settings: Sprague-Dawley, Brain, 6 mg/kg; remark: listed apart in the source
Description: Inhibition of FAAH in Sprague-Dawley rat brain homogenate assessed as increase in OEA levels at 6 mg/kg after 0.5 to 4 hrs by liquid scintillation analysis

[15] = Dissociation constant, pKa of the compound; type: physicochemical
Rattus norvegicus [16] = assay: Inhibition of FAAH in Sprague-Dawley rat brain homogenate assessed as residual activity measured as [3H]-anandamide hydrolysis at 20 mg/kg within 30 mins by liquid scintillation analysis; type: functional
Rattus norvegicus [17] = organism: Rattus norvegicus; settings: Sprague-Dawley, Brain, 20 mg/kg
Description: Inhibition of FAAH in Sprague-Dawley rat brain homogenate assessed as reduction in residual activity measured as [3H]-anandamide hydrolysis at 20 mg/kg measured after 0.5 to 6 hrs by liquid scintillation analysis

[18] = Ratio of drug level in brain to plasma in Sprague-Dawley rat at 10 mg/kg via oral gavage; type: ADME, organism-based; settings: read-out: BPR
Plasma = assay: Drug uptake in Sprague-Dawley rat plasma at 20 mg/kg via oral gavage after 4 hrs by LC-MS/MS analysis; type: ADME, organism-based; settings: in vivo
Brain = assay: Drug uptake in Sprague-Dawley rat brain at 20 mg/kg via oral gavage after 4 hrs by LC-MS/MS analysis; type: ADME, organism-based; settings: in vivo
[19] = Ratio of drug level in brain to plasma in Sprague-Dawley rat at 0.6 mg/kg via oral gavage; type: ADME, organism-based; settings: read-out: BPR
[20] = Ratio of drug level in brain to plasma in Sprague-Dawley rat at 6 mg/kg via oral gavage; type: ADME, organism-based; settings: read-out: BPR
Rattus norvegicus [21] = assay: In-vivo reversible inhibition of FAAH in Sprague-Dawley rat brain homogenate assessed as residual activity measured as [3H]-anandamide hydrolysis after 48 hrs by liquid scintillation analysis; type: functional, organism-based
Rattus norvegicus [22] = assay: Inhibition of FAAH in Sprague-Dawley rat brain homogenate assessed as increase in PEA levels at 0.1 to 100 mg/kg measured 4 hrs post dosing by […]; type: functional, organism-based
Rattus norvegicus [23] = assay: Inhibition of FAAH in Sprague-Dawley rat brain homogenate assessed as increase in OEA levels at 0.1 to 100 mg/kg measured 4 hrs post dosing by […]; type: functional, organism-based
Rattus norvegicus [24] = assay: Inhibition of FAAH in Sprague-Dawley rat brain homogenate assessed as reduction in residual activity measured as [3H]-anandamide hydrolysis at 20 mg/kg after 30 mins by liquid scintillation analysis; settings: read-out: INH
Rattus norvegicus [25] = assay: Inhibition of FAAH in Sprague-Dawley rat brain homogenate assessed as residual activity measured as [3H]-anandamide hydrolysis at 20 mg/kg after 1 hr by liquid scintillation analysis; type: functional
Rattus norvegicus [26] = assay: Inhibition of FAAH in Sprague-Dawley rat brain homogenate assessed as residual activity measured as [3H]-anandamide hydrolysis at 20 mg/kg after 4 hrs by liquid scintillation analysis; type: functional

Structure (SMILES) | IC50 [2] [nM] | Kp [3] | IC50 [6] [nM] | clearance [8] [mL/min/kg] | Vd [9] [L/kg] | bioavailability [10] [%] | Time (Rattus norvegicus [1]) [h] | FAAH inhibition (PEA level increase), active/inactive (Rattus norvegicus [4]) | OEA level increase (activity call) (Rattus norvegicus [5]) | other results
O=C(Nc1cccnc1)N1CCCC(Cc2cccc(Oc3ccc(F)cc3)c2)C1 (stereo unspecified) | 41 | 0.33 | 28 |  |  |  | 24 | Active | Active | 
O=C(Nc1cccc2nccn12)N1CCN(Cc2cccc(Oc3ccc(Cl)cc3)c2)CC1 |  |  |  |  |  |  | 24 | Active | Active | pKa [7]: 6.8
O=C(Nc1nn[nH]n1)N1CCN(Cc2cccc(Oc3ccc(Cl)cc3)c2)CC1 |  |  |  |  |  |  |  |  |  | Activity (Rattus norvegicus [11]): <10%; Time (Rattus norvegicus [12]): 24 h; inhibition (Rattus norvegicus [13]): Active; inhibition (Rattus norvegicus [14]): Active
O=C(Nc1cccnc1)N1CCC(Cc2cccc(Oc3ccc(Cl)cc3)c2)CC1 | 215 | 2.26 | 4.3 |  |  |  | 24 | Active | Active | 
O=C(Nc1ccccc1)N1CCN(Cc2cccc(Oc3ccc(Cl)cc3)c2)CC1 |  |  |  |  |  |  | 24 |  |  | Kp [18]: 3.64
O=C(Nc1cccnc1)N1CCN(Cc2cccc(Oc3ccc(F)cc3)c2)CC1 | 290 | 1.57 | 16 | 10 | 4 | 100 | 24 | Active | Active | 
O=C(Nc1noc2ccccc12)N1CCN(Cc2cccc(Oc3ccc(Cl)cc3)c2)CC1 | 8 |  |  | 9.33 | 2.48 | 44 | 24 | Active | Active | 
O=C(Nc1cccnc1)N1CCN(Cc2cc(Cl)cc(Oc3ccc(Cl)cc3)c2)CC1 | 76 | 1.26 | 8 |  |  |  | 24 | Active | Active | Drug uptake (Plasma): Dose-dependent effect; Drug uptake (Brain): Dose-dependent effect
O=C(Nc1cnccc1Cl)N1CCN(Cc2cccc(Oc3ccc(F)cc3)c2)CC1 | 48 | 0.67 | 3.3 |  |  |  | 24 | Active | Active | 
O=C(Nc1cccnc1)N1CCN(Cc2cccc(Oc3ccc(C(F)(F)F)cc3)c2)CC1 |  | 1.99 |  |  |  |  | 24 |  |  | inhibition (Rattus norvegicus [22]): Active; inhibition (Rattus norvegicus [23]): Active
O=C(Nc1cccnc1)N1CCC(Cc2cccc(Oc3ccc(Cl)cn3)c2)CC1 | 22 | 0.45 | 1 |  |  |  | 24 | Active | Active | 
O=C(Nc1cnc2ccccn12)N1CCN(Cc2cccc(Oc3ccc(Cl)cc3)c2)CC1 |  |  |  | 63.3 | 10.7 | 60 | 24 | Active | Active | pKa [7]: 6.8; inhibition in vivo at 20 mg/kg (Rattus norvegicus [24]): 60%; Activity (Rattus norvegicus [25]): < 10%; Activity (Rattus norvegicus [26]): <5%
O=C(Nc1cccnc1)N1CCN(Cc2cccc(Oc3ccc(Br)cc3)c2)CC1 | 20 | 1.58 | 2.4 | 13.3 | 2.8 | 100 | 24 |  |  | 

Now from value to molecule, other results behind:

IC50 [2] [nM] | Kp [3] | IC50 [6] [nM] | clearance [8] [mL/min/kg] | Vd [9] [L/kg] | bioavailability [10] [%] | Structure (SMILES) | Time (Rattus norvegicus [1]) [h] | FAAH inhibition (PEA level increase), active/inactive (Rattus norvegicus [4]) | OEA level increase (activity call) (Rattus norvegicus [5]) | other results
 |  |  | 3.33 | 1.1 | 100 | O=C(Nc1nnn[nH]1)N1CCN(Cc2cccc(Oc3ccc(Cl)cc3)c2)CC1 |  |  |  | pKa [7]: 4.9
84 |  |  | 15.5 | 4.11 | 35 | O=C(Nc1cnccn1)N1CCN(Cc2cccc(Oc3ccc(Cl)cc3)c2)CC1 | 24 | Active | Active | pKa [15]: 0.6; Activity (Rattus norvegicus [16]): 10%; inhibition (Rattus norvegicus [17]): Active
 |  |  | 8.33 | 2 | 75 | O=C(Nc1cc[nH]n1)N1CCN(Cc2cccc(Oc3ccc(Cl)cc3)c2)CC1 | 24 | Active | Active | pKa [15]: 2.5
 | 2.62 |  | 11.5 | 3.2 |  | O=C(Nc1cccnc1)N1CCN(Cc2cccc(Oc3ccc(Cl)cc3)c2)CC1 | 24 |  |  | pKa [15]: 5.25; Kp [19]: 2.62; Kp [20]: 2.62; inhibition (Rattus norvegicus [21]): Active
 |  |  | 10 | 2.6 | 50 | O=C(Nc1ccon1)N1CCN(Cc2cccc(Oc3ccc(Cl)cc3)c2)CC1 | 24 | Active | Active | 
20 | 1.18 | 1.3 | 46.5 | 3.33 | 18 | O=C(Nc1cnccc1Cl)N1CCN(Cc2cccc(Oc3ccc(Cl)cc3)c2)CC1 | 24 | Active | Active | pKa [15]: 3.85
17 | 3.28 | 17 |  |  |  | N#Cc1ccncc1NC(=O)N1CCN(Cc2cccc(Oc3ccc(Cl)cc3)c2)CC1 | 24 | Active | Active | pKa [15]: 1.9
